The results in this text go back to patent US7951812B2, “Substituted pyrrolo[2,3-d]pyrimidines as antifolates” (Chelsea Therapeutics, Inc., priority 2007, dated 2011).

Holding throughout (assay type): biochemical
Assay [1] deals with T1, DHFR in CCRF-CEM human leukemia cells (Homo sapiens, UniProt P00374).
T1 construct: endogenous in cells; host or cells: CCRF-CEM
T1 sequence (P00374 1-187): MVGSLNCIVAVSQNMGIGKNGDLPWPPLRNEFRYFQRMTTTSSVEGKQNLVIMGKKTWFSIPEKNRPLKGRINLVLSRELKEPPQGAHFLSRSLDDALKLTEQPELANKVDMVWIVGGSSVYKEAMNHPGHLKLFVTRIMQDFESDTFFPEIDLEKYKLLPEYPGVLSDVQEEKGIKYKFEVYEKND
Briefly: DHFR enzyme inhibition assay. The conditions noted are these: DHFR from CCRF-CEM cells, pre-incubation with NADPH 3 minutes at 37° C.

Assay [2] addresses T2, TS in CCRF-CEM human T-lymphoblastic leukemia cells (Homo sapiens, UniProt P04818).
T2 construct: endogenous in cells; host or cells: CCRF-CEM
In words: TS enzyme inhibition assay. The conditions noted are these: TS from CCRF-CEM cells, up to five graded concentrations; read-out: IC50 against TS. The method, then:
The inhibitory potency against TS in CCRF-CEM human T-lymphoblastic leukemia cells was assessed by introducing up to five graded concentrations of compounds into the reaction mixture, initiating the reaction by addition of TS, and quantitating remaining TS activity.

Another assay deals with AICART (Homo sapiens, UniProt P31939). Briefly: AICART inhibition (similar tests). Particulars: read-out: IC50 against AICART. From the text:
(§1) The above data illustrates the selectivity of the novel antifolates in enzyme inhibition. […] As previously noted, such selectivity in activity can be useful for improving activity against specific conditions while avoiding undesirable side effects.

The target in the next assay is T3, GARFT (Homo sapiens, UniProt P22102).
T3 sequence (P22102 1-1010): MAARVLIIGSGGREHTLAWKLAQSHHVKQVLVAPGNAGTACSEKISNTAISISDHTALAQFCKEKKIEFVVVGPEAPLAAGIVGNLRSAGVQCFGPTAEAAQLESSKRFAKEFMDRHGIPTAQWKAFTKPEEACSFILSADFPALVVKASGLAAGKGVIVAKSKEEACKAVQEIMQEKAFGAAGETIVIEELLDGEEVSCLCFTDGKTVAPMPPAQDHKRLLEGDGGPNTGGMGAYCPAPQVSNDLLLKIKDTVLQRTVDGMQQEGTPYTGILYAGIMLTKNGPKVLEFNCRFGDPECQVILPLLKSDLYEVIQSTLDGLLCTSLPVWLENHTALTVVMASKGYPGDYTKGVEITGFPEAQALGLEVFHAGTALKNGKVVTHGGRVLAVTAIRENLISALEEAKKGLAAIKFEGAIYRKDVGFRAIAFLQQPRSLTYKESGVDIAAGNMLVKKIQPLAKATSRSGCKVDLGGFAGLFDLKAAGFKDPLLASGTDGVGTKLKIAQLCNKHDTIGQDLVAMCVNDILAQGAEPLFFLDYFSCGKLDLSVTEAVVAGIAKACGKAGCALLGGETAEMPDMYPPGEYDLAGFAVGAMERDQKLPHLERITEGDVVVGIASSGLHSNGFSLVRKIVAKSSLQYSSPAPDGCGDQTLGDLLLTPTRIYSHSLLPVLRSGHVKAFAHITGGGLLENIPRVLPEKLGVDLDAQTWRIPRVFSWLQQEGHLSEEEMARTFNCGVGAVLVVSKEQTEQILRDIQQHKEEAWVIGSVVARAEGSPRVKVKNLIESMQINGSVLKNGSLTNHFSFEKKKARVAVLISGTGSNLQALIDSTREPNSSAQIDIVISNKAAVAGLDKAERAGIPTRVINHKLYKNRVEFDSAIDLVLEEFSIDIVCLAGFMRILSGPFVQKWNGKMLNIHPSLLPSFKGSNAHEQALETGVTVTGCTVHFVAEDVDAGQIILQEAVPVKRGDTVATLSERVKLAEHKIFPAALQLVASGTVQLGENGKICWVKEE
Briefly: GARFT inhibition (similar tests). The conditions noted are these: read-out: IC50 against GARFT.
Description: as §1

Molecules are shown by their SMILES. Counter-ions that a name gives are not always drawn. A value given as a limit tells only on which side of the number the result lay.

T2 sequence (P04818 whole entry): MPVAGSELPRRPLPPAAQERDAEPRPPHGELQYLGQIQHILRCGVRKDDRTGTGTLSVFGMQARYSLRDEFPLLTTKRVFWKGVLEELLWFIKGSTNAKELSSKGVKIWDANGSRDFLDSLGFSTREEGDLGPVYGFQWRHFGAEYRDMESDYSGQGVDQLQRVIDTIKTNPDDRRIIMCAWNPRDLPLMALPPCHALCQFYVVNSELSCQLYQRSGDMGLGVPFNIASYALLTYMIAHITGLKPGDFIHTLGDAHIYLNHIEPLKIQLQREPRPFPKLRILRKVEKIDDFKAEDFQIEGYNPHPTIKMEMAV
Sequence of AICART (P31939 whole entry): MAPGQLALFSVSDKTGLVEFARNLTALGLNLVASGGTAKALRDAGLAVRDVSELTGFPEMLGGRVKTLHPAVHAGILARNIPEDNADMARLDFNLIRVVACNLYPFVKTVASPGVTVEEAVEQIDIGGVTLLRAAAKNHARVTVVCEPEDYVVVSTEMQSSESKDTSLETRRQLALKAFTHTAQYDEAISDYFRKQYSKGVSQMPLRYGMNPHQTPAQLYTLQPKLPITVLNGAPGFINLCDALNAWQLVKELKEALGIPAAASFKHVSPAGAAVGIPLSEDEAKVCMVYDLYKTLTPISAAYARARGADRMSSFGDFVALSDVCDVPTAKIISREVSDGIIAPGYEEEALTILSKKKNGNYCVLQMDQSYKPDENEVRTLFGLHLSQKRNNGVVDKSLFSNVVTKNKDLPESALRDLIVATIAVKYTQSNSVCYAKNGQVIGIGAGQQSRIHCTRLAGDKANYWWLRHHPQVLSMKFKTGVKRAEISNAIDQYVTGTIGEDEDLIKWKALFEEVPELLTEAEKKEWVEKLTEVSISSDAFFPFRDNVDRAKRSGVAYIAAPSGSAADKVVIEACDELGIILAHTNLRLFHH

The IC50 is the concentration that inhibits the measured activity by half. As to `C=C(CC(NC(=O)c1ccc(CCc2ccc3nc(N)nc(N)c3c2)cc1)C(=O)O)C(=O)O` (stereo not shown) [Mobiltrex, 2-{4-[2-(2,4-diamino-quinazolin-6-yl)-ethyl] -benzoylamino}-4-methylidene-pentanedioic acid, reference compound], the 50% inhibitory concentration (IC50) in assay [1] turned out to be 1.1 nM; in assay [2] it was 8000 nM.
Consider `C=C(C[C@H](NC(=O)c1ccc(CCc2c[nH]c3nc(N)nc(N)c23)cc1)C(=O)O)C(=O)O` [CHL1007, (S)-N-{4-[2-(2,4-diamino-7H-pyrrolo[2,3-d]pyrimidin-5-yl)ethyl]benzoyl}-4-methylene-L-glutamic acid disodium salt], for which, in assay [1], the half-maximal inhibitory concentration (IC50) stood at 5.2 nM.
On to `C=C(CC(NC(=O)c1ccc(CCc2c[nH]c3nc(N)nc(N)c23)cc1)C(=O)O)C(=O)O` (racemic) [CHL-003, N-{4-[2-(2,4-diamino-7H-pyrrolo[2,3-d]pyrimidin-5-yl)ethyl]benzoyl}-4-methylene-glutamic acid], for which the IC50 on AICART was over 50000 nM; at GARFT, over 50000 nM; in assay [1], 12.5 nM; in assay [2], over 50000 nM.
